The data set in a line: PK comparison of Compound 1 clinical data with literature PK of palbociclib. The class given is in vivo, human.
The mark [1] stands for this setting: human, plasma, 96 mg/m2, 96 mg/m^2 IV.

Results on one compound are retold here after patent US20160220569A1, “CDK4/6 Inhibitor Dosage Formulations For The Protection Of Hematopoietic Stem And Progenitor Cells During Chemotherapy” (G1 Therapeutics, Inc., priority 2015, published 2016).

Broadly, the CL/F is the apparent clearance, not corrected for the fraction that reaches the circulation. As a reminder, the AUC(0-inf) is total exposure, with the tail of the curve extrapolated. Low values mean low exposure, high ones high exposure. A word on the Cmax: it is the maximum level reached in the sampled fluid or tissue. As usually defined, the half-life is how long it takes for the measured level to halve. The low end stands for rapid decline, the high end for slow decline. On to `CN1CCN(c2ccc(Nc3ncc4cc5n(c4n3)C3(CCCCC3)CNC5=O)nc2)CC1` [Compound 1, 2′-((5-(4-methylpiperazin-1-yl)pyridin-2-yl)amino)-7′,8′-dihydro-6′H-spiro[cyclohexane-1,9′-pyrazino[1′,2′:1,5]pyrrolo[2,3-d]pyrimidin]-6′-one], for which the CL/F (96 mg/m^2 IV) amounted to 121 L/h. The “accumulation in blood plasma on consecutive days” value (Compound 1) is “does not show accumulation”. Also, where the note is “[…]^2 IV”, the CL/F amounted to 126 L/h. Under setting [1], this compound showed an AUC(0-inf) of 1380 ng·h/mL, a Cmax of 932 ng/mL and a half-life of 8.6 h. In addition, the half-life (human, plasma, iv, […]2) was 7.9 h.
